# Like-named read-outs stand apart in the source and are kept apart here.
# Tests used:
# pupil diameter = assay: pupillometry, trial A; assay type: in vivo, human; details: after dosing
# cold-induced pain = assay: cold pressor test (cold-induced pain), trials A and B; assay type: in vivo, human
# [1] = respiration and other vital signs, trials A and B; details: trial A
# [2] = single dose 100 mg racemic tramadol, cited from earlier work
# [3] = human, in vivo, cited from earlier work
# [4] = drug-related adverse events, safety population, trials A and B
# [5] = steady-state pharmacokinetics, 50 mg tramadol vs 20 mg desmetramadol every 6 hours, nine doses, trials A and B (B with paroxetine); details: after tramadol dosing, with vs without paroxetine
# [6] = trial A (n = 43, males), 0-10 VAS
# [7] = trial B (n = 18, females), with paroxetine
# [8] = trial B (n = 18, females), with paroxetine, 0-10 VAS
# [9] = trial B (n = 42, males), with paroxetine
# [10] = trial B (n = 42, males), with paroxetine, 0-10 VAS
smiles,measurement,setting,value
COc1cccc(C2(O)CCCCC2CN(C)C)c1 (racemic) [tramadol],"pupil diameter, mean paired reduction [SD] compared to placebo",pupil diameter,−0.7 (0.6) millimeters
same,average duration of tolerance to pain,cold-induced pain; trial A,62 s
same,"Time to first pain, mean difference versus placebo","cold-induced pain; trial A (n = 43, males)",2.1 s
same,"Time to withdrawal, mean difference versus placebo","cold-induced pain; trial A (n = 43, males)",12.4 (4.4) seconds
same,"Pain intensity at 30 seconds, MPD versus placebo",cold-induced pain; [6],−0.46
same,"Pain intensity at first perception, MPD versus placebo",cold-induced pain; [6],−0.21
same,"Time to withdrawal, mean difference versus placebo","cold-induced pain; trial A (n = 43, males), listed as TRAMADOL",12.4 s
same,Average (SD) subject-reported pain scores at 30 seconds,"cold-induced pain; trial A, 0-10 VAS",6.0 (1.7)
same,"Time to first pain, MPD versus placebo",cold-induced pain; [7],2.6 s
same,"Time to withdrawal, MPD versus placebo",cold-induced pain; [7],7.5 s
same,"Pain intensity at 30 seconds, MPD versus placebo",cold-induced pain; [8],0.03
same,"Pain intensity at first perception, MPD versus placebo",cold-induced pain; [8],0.01
same,"Time to first pain, MPD versus placebo",cold-induced pain; [9],1.5 s
same,"Time to withdrawal, MPD versus placebo",cold-induced pain; [9],6.9 (1.6) seconds
same,"Pain intensity at 30 seconds, MPD versus placebo",cold-induced pain; [10],failed to statistically differentiate from placebo
same,"Pain intensity at first perception, MPD versus placebo",cold-induced pain; [10],−0.08
same,"Pain intensity at 30 seconds, MPD versus placebo","cold-induced pain; trial B (n = 42, males), with paroxetine, 0-10 VAS, listed as TRAMADOL",−0.25
same,"Time to withdrawal, MPD versus placebo","cold-induced pain; trial B (n = 42, males), with paroxetine, listed as TRAMADOL",6.9 s
same,pre-dose versus post-dose effect on respiratory rate compared to placebo or each other,[1],no discernable pre-dose versus post-dose effect
same,subjects experiencing nausea,[2]; EM group (11 EMs),9%
same,subjects experiencing nausea,[2]; UM group (11 UMs),~50%
same,lethal dose,[3],> 5 grams
same,Deaths,[4]; trial A,0 (0) N (%)
same,Severe AEs,[4]; trial A,0 (0) N (%)
same,subjects reporting drug-related AEs,[4]; trial A,49%
same,All AEs,[4]; trial A (N = 43),20 (49) N (%)
same,Dizziness,"[4]; trial A, all subjects",5 (12) N (%)
same,Euphoria,"[4]; trial A, all subjects",0 (0) N (%)
same,Feel abnormal,"[4]; trial A, all subjects",1 (2) N (%)
same,Feel hot,"[4]; trial A, all subjects",0 (0) N (%)
same,Headache,"[4]; trial A, all subjects",7 (17) N (%)
same,Nausea,"[4]; trial A, all subjects",5 (12) N (%)
same,Presyncope,"[4]; trial A, all subjects",0 (0) N (%)
same,Pruritus,"[4]; trial A, all subjects",4 (10) N (%)
same,Somnolence,"[4]; trial A, all subjects",2 (5) N (%)
same,Spasticity,"[4]; trial A, all subjects",1 (2) N (%)
same,Sweating,"[4]; trial A, all subjects",0 (0) N (%)
same,Vomiting,"[4]; trial A, all subjects",1 (2) N (%)
same,Dizziness,"[4]; trial A, male",5 (12) N (%)
same,Euphoria,"[4]; trial A, male",0 (0) N (%)
same,Feel abnormal,"[4]; trial A, male",1 (2) N (%)
same,Feel hot,"[4]; trial A, male",0 (0) N (%)
same,Headache,"[4]; trial A, male",7 (17) N (%)
same,Nausea,"[4]; trial A, male",5 (12) N (%)
same,Presyncope,"[4]; trial A, male",0 (0) N (%)
same,Pruritus,"[4]; trial A, male",4 (10) N (%)
same,Somnolence,"[4]; trial A, male",2 (5) N (%)
same,Spasticity,"[4]; trial A, male",1 (2) N (%)
same,Sweating,"[4]; trial A, male",0 (0) N (%)
same,Vomiting,"[4]; trial A, male",1 (2) N (%)
same,Deaths,[4]; trial B,0 (0) N (%)
same,Severe AEs,[4]; trial B,0 (0) N (%)
same,All AEs,"[4]; trial B (N = 60), with paroxetine",30 (50) N (%)
same,Dizziness,"[4]; trial B, all subjects",8 (13) N (%)
same,Euphoria,"[4]; trial B, all subjects",1 (2) N (%)
same,Feel abnormal,"[4]; trial B, all subjects",2 (3) N (%)
same,Feel hot,"[4]; trial B, all subjects",0 (0) N (%)
same,Headache,"[4]; trial B, all subjects",6 (10) N (%)
same,Nausea,"[4]; trial B, all subjects",8 (13) N (%)
same,Presyncope,"[4]; trial B, all subjects",1 (2) N (%)
same,Pruritus,"[4]; trial B, all subjects",1 (2) N (%)
same,Somnolence,"[4]; trial B, all subjects",4 (7) N (%)
same,Spasticity,"[4]; trial B, all subjects",3 (5) N (%)
same,Sweating,"[4]; trial B, all subjects",1 (2) N (%)
same,Vomiting,"[4]; trial B, all subjects",2 (3) N (%)
same,Dizziness,"[4]; trial B, female",4 (22) N (%)
same,Euphoria,"[4]; trial B, female",0 (0) N (%)
same,Feel abnormal,"[4]; trial B, female",0 (0) N (%)
same,Feel hot,"[4]; trial B, female",0 (0) N (%)
same,Headache,"[4]; trial B, female",6 (33) N (%)
same,Nausea,"[4]; trial B, female",2 (11) N (%)
same,Presyncope,"[4]; trial B, female",0 (0) N (%)
same,Pruritus,"[4]; trial B, female",1 (6) N (%)
same,Somnolence,"[4]; trial B, female",2 (11) N (%)
same,Spasticity,"[4]; trial B, female",0 (0) N (%)
same,Sweating,"[4]; trial B, female",0 (0) N (%)
same,Vomiting,"[4]; trial B, female",0 (0) N (%)
same,Dizziness,"[4]; trial B, male",4 (10) N (%)
same,Euphoria,"[4]; trial B, male",1 (2) N (%)
same,Feel abnormal,"[4]; trial B, male",2 (5) N (%)
same,Feel hot,"[4]; trial B, male",0 (0) N (%)
same,Headache,"[4]; trial B, male",0 (0) N (%)
same,Nausea,"[4]; trial B, male",6 (14) N (%)
same,Presyncope,"[4]; trial B, male",1 (2) N (%)
same,Pruritus,"[4]; trial B, male",0 (0) N (%)
same,Somnolence,"[4]; trial B, male",2 (5) N (%)
same,Spasticity,"[4]; trial B, male",3 (7) N (%)
same,Sweating,"[4]; trial B, male",1 (2) N (%)
same,Vomiting,"[4]; trial B, male",2 (5) N (%)
same,"headache, tramadol AE profile compared to the desmetramadol AE profile","[4]; trial B, same subjects",−40%
same,"nausea, tramadol AE profile compared to the desmetramadol AE profile","[4]; trial B, same subjects",−50%
same,"presyncope, tramadol AE profile compared to the desmetramadol AE profile","[4]; trial B, same subjects",−83%
same,"pruritus, tramadol AE profile compared to the desmetramadol AE profile","[4]; trial B, same subjects",−75%
same,"somnolence, tramadol AE profile compared to the desmetramadol AE profile","[4]; trial B, same subjects",−60%
same,"vomiting, tramadol AE profile compared to the desmetramadol AE profile","[4]; trial B, same subjects",−78%
same,subjects reporting drug-related AEs,"[4]; trial B, with paroxetine",50%
"COc1cccc(C2(O)CCCCC2CN(C)C)c1 (single isomer, unassigned; (-)) [(−)-tramadol, 1S,2S-tramadol, reference compound]",levels in trial B as % of levels in trial A,[5],200%
"COc1cccc([C@@]2(O)CCCC[C@@H]2CN(C)C)c1 [(+)-tramadol, 1R,2R-tramadol, reference compound]",levels in trial B as % of levels in trial A,[5],200%
COc1ccc2c3c1O[C@H]1C(=O)CC[C@H]4[C@@H](C2)N(C)CC[C@]314 [hydrocodone],lethal oral dose,[3],90 mg
COc1ccc2c3c1O[C@H]1C(=O)CC[C@@]4(O)[C@@H](C2)N(C)CC[C@]314 [oxycodone],lethal oral dose,[3],40 mg
